Results on eight compounds are retold here after paper PMC10313066, “In-vitro high-throughput library screening—Kinetics and molecular docking studies of potent inhibitors of α-glucosidase” (PLOS ONE, 2023).

In assay [1] the target is T1, α-glucosidase (Saccharomyces cerevisiae, UniProt P53341). Kind of assay: α-glucosidase inhibition assay (96-well, pNPG substrate, 405 nm). The note with it: S3 Table; for OD of sample: absorbance at 405 nm; for inhibition at 500 µM (stock): test compound 20 μL of 0.5 mM, read-out: Percentage Inhibition. Type of assay: biochemical. As for the experimental part:
The assay is based on the method given by Pistia-Brueggeman with slight modifications. In a 96-well plate 120 μL of sodium phosphate buffer (pH = 7) was taken and 20 μL of the enzyme (2U/mL) was added. Then 20 μL of test compound (0.5 mM) was added and then incubated for 15 min. at 37 °C. In sequence, substrate pNPG (20 μL, 1mM) was taken in each well, and dissolved in buffer. The reaction mixture was again incubated for 15 min. at 37 °C. The reaction was stopped by the addition of 20 μL of 0.1 mM Na2CO3, so that the final volume reaches 200 μL. The activity of the enzyme was measured spectrophotometrically at 405 nm by measuring the concentration of product formed, using SpectraMax M2 (Molecular Devices CA, USA). Each sample was taken in triplicate and the % inhibition was measured. […]

Assay [2] has as its target T1, α-glucosidase. Kind of assay: Kinetic studies, Line-weaver Burk plot (type of enzyme inhibition). Type of assay: biochemical. To be noted: Vmax and Km both change with inhibitor concentration. As to the method: The type of enzyme inhibition was determined by using the Line-weaver Burk plot. For this, out of 4 different concentrations of each sample, each concentration is analyzed against 4 different concentrations of substrate ranging from 1 mM to 0.125 mM. The inverse of maximum velocity (1/Vmax), obtained for each concentration, is plotted against the inverse of substrate concentrations (1/[S]) to find out type of enzyme inhibition.

Assay [3] relates to urease. The arrangement: method as in earlier work. The note with it: cited from earlier work.
Assay [4] has as its target carbonic anhydrase II. Also noted: method as in earlier work. To be noted: cited from earlier work.

T1 sequence (P53341 whole entry): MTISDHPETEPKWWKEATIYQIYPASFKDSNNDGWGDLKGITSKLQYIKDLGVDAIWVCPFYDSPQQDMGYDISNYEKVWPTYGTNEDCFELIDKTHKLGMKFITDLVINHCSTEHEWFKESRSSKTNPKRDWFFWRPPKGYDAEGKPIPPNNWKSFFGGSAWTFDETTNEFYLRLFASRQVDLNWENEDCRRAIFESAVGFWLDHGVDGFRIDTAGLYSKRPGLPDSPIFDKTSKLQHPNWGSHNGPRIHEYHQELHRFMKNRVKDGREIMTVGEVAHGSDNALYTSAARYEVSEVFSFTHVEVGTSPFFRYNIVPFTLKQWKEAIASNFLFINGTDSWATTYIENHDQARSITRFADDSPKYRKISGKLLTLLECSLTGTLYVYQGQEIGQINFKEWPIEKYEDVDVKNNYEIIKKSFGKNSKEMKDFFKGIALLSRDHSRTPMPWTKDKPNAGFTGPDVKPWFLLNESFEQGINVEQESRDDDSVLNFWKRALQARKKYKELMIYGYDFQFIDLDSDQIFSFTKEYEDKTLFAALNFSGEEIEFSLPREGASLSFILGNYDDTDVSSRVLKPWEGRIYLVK

`COc1ccc(S(=O)(=O)N2CCC(c3nnc(SC(C)C(=O)Nc4ccc(C)cc4)n3-c3ccccc3)CC2)cc1` (stereo not drawn) [compound 185]: in assay [1], the OD of sample is listed as 0.49 and the inhibition at 500 µM (stock) came to 81.9%. In the case of `O=[N+]([O-])c1ccc(N/N=C\c2ccc(O)cc2)c([N+](=O)[O-])c1` [compound 5], in assay [1], the OD of sample was 0.62. Take `Clc1ccc(-c2nnc(-c3ccc[nH]3)o2)c(Cl)c1` [compound 25, 2-(2,4-dichlorophenyl)-5-(1H-pyrrol-2-yl)-1,3,4-oxadiazole]: in assay [1], the OD of sample stood at 0.33 and the inhibition at 500 µM (stock) worked out at 90%. In addition, in assay [2], the “mode (type) of enzyme inhibition” value was “un-competitive”. With `CCSc1nc2ccccc2n1CC(=O)N/N=C/c1ccc(O)cc1O` [compound 228, (E)-N’-(2,4-dihydroxybenzylidene)-2-(2-(ethylthio)-1H-benzo[d]imidazol-1-yl)acetohydrazide], in assay [1], the OD of sample is listed as 0.30 and the inhibition at 500 µM (stock) was determined as 91.2%. Moreover, the “mode (type) of enzyme inhibition” value in assay [2] is listed as “un-competitive”. Turning to `O=C1Oc2ccccc2C(=O)/C1=C/c1ccc(-c2ccccc2)cc1` [compound 54], in assay [1], the OD of sample is 0.39 and the inhibition at 500 µM (stock) amounted to 85.6%. For `N=C(N)NCCC[C@@H](N)c1nnc(-c2cccs2)o1` [(R)-1-(4-amino-4-(5-(thiophen-2-yl)-1,3,4-oxadiazol-2-yl)butyl)guanidine], the IC50 in assay [3] was 47 µM.

Take `CCCCCCCCCCCCSc1nc2ccccc2n1CC(=O)N/N=C/c1ccc(O)c(OCC)c1` [compound 96]: in assay [1], the OD of sample is reported as 0.64 and the inhibition at 500 µM (stock) worked out at 80.1%. In the case of `O=C(C1=C(c2ccccc2)NC(=S)NC1c1cccc(O)c1)c1ccccc1` (stereo not drawn) [(4-(3-hydroxyphenyl)-6-phenyl-2-thioxo-1,2,3,4-tetrahydropyrimidin-5-yl)phenyl)methanone], the IC50 in assay [4] is 98 µM.
